Where a name gives a salt, the structure may show the parent alone.
Assays:
[1] = Excipient compatibility, UV HPLC method (degradation, impurities other than Compound 2)
Description: This study was performed to determine stability of Compound 1 di-tosylate salt, Form I, in combination with various oral solid dosage form excipients. […] The data of the blends were compared with a control sample (Compound 1 di-tosylate salt alone) to assess the effect of each excipient relative to Compound 1 di-tosylate salt alone.
Blends were prepared by screening the components together; aliquots were then weighed for stability testing. The binary blend samples were initially stored under accelerated conditions (50° C./dry, 50° C./75% RH) in open glass vials and analyzed by HPLC to determine the potential for drug substance degradation with each excipient. […] Analysis of a control (Compound 1 di-tosylate salt alone) was included for comparison at each condition.
Compound 1 di-tosylate salt was blended at the desired ratio of excipient to drug (see Table 7 below) by weighing each material, mixing with a spatula in a vial, and screening the mixture 5 times with an 18 mesh screen. A control sample was included for comparison to the blends. The weight equivalent of approximately 4 mg of Compound 1 di-tosylate salt was added to each glass vial and initially set-up at 50° C./dry (<20% RH) and 50° C./75% RH. Based on results after 1 week at 50° C.; additional samples were set-up at 40° C./dry and 40° C./75% RH. […] The 75% RH chamber was maintained by using a saturated sodium chloride solution in water (inside a closed chamber). The humidity of the 75% RH chamber was verified with a hygrometer (VWR brand). Samples were tested by HPLC after 1 week at 50° C. and 1 and 2 weeks at 40° C. (low and high RH at both temperatures). Data were also measured for samples at 20° C. in closed vials.
Samples were analyzed by HPLC using the method described below after dilution in 85% H2O (0.1% TFA)/15% acetonitrile to 4 mL, sonication for 5 minutes, and filtration (0.45 μm Acrodisc GHP). One injection per sample was performed at each stability station. Two methods were performed on the stability samples: a UV based HPLC method and a mass spectroscopy HPLC method performed for one impurity (Compound 2).
UV HPLC Method-Instrument: Agilent 1260 HPLC; Column: Ascentis Express C18 4.6×150 mm; Mobile Phase A: Water (0.1% TFA); Mobile Phase B: Acetonitrile (0.1% TFA); Flow Rate: 1.0 mL/min; Injection volume: 10 μL; UV Detection 214 nm; Column Temperature: 30° C.; Run Time: 33 min; Sample concentration: 1.0 mg/mL as salt; Threshold: 0.1%; Gradient Program:
Accelerated storage (50° C., 40° C.) conditions were used to identify potential drug-excipient interactions.

[2] = Excipient compatibility, mass spectroscopy HPLC method (% Compound 2); assay type: physicochemical
Text: (low and high RH at both temperatures).

[3] = Crystalline form change under storage conditions; assay type: physicochemical; conditions: storage conditions of 25° C./60% RH and 40° C./75% RH
Description: Form HI of Compound 1 di-tosylate salt was prepared during the process of drying a wet sample of Compound 1 di-tosylate salt, Form I, under ambient conditions. Form I slowly absorbed atmospheric moisture and gradually changed to crystalline Form HI.
Form HI of Compound 1 di-tosylate salt was prepared during the process of drying a wet sample of Compound 1 di-tosylate salt, Form I, under ambient conditions. Form I slowly absorbed atmospheric moisture and gradually changed to crystalline Form HI. […] Form HI can also be generated by purging humidified air (e.g., 60-85% RH) through Form I solid.

[4] = DVS moisture uptake analysis; assay type: physicochemical
Description: Form DH was characterized by DVS. The DVS analysis was performed on a TA Instruments Vapor Sorption Analyzer, model VTI-SA^+. Form DH was generated by pre-drying Form HI on VTI at 40° C. with 0% RH N2 for 3 h. Then the moisture uptake profile was completed in one cycle in 5% RH increments with adsorption from 0% RH to 95% RH followed by desorption in 5% increments from 95% to […]. The equilibration criteria were 0.0010 wt % in 5 minutes with a maximum equilibration time of 180 minutes. All adsorption and desorption were performed at 25° C.

Row | Compound | Compound 1 di-tosylate salt degradation (UV Method) ([1]; 1 W 40° C./75% RH) [%] | Compound 1 di-tosylate salt degradation (UV Method) ([1]; 1 W 40° C./dry) [%] | Compound 1 di-tosylate salt degradation (UV Method) ([1]; 1 w 50° C./75% RH, open glass vials, peak area percent) [%] | Compound 1 di-tosylate salt degradation (UV Method) ([1]; 1 w 50° C./dry (<20% RH), open glass vials, peak area percent) [%] | Compound 1 di-tosylate salt degradation (UV Method) ([1]; 2 W 40° C./75% RH) [%] | Compound 1 di-tosylate salt degradation (UV Method) ([1]; 2 W 40° C./dry) [%] | 20° C. 2 w UV method ([1]; 20° C., 2 w, closed vials) [%] | % Compound 2 ([2]; 1 w 50° C./75% RH) [%] | % Compound 2 ([2]; 1 w 50° C./dry) [%] | 2 W 20° C. % of cmpd 2 ([2]; 20° C., 2 w, closed vials) [%] | wt % of Compound 2 ([2]; 40° C. (dry) 1 W) [wt %] | wt % of Compound 2 ([2]; 40° C. (dry) 2 W) [wt %] | wt % of Compound 2 ([2]; 40° C./75% RH 1 w) [wt %] | wt % of Compound 2 ([2]; 40° C./75% RH 2 w) [wt %] | Crystalline form change on storage [3] | Hygroscopicity (DVS) ([4]; adsorption 0% RH to 95% RH, desorption 95% to 85% RH, 25° C.) | Solid collected after DVS ([4]; after DVS at 85% RH)
1 | COCC1(CN[C@@H]2C[C@H]2c2ccccc2)CCN(CC2(C(=O)O)CCC2)CC1 [Cmpd 1 di-tosylate salt alone, 1-{[4-(methoxymethyl)-4-({[(1R,2S)-2-phenylcyclopropyl]amino}methyl)piperidin-1-yl]methyl}cyclobutanecarboxylic acid bis(4-methylbenzenesulfonate)] | <0.1 | 0.43 | 0.3 | 1.4 | <0.1 | 0.86 | <0.1 | 2.47 | 2.37 | 0.43 | 1.4 | 3.4 | 1.3 | 1.9 | converted to Form HI | – | –
2 | COCC1(CN[C@@H]2C[C@H]2c2ccccc2)CCN(CC2(C(=O)O)CCC2)CC1 [Form DH] | – | – | – | – | – | – | – | – | – | – | – | – | – | – | – | hygroscopic | Form HI

Reference: patent publication US10166221B2, “Formulations of an LSD1 inhibitor” (Incyte Corporation, priority 2016, dated 2019)
